Experimental data from ChEMBL document CHEMBL2007661, “Compounds: GSK PKIS; Assays: UNC Frye lab” (2012).
Values joined by “and” are separate entries in the source; they are usually repeats but may differ in a detail not shown here. Equal entries are not always repeated.

Assays:
[1] = target: T1, Inhibitor of nuclear factor kappa-B kinase subunit epsilon (Homo sapiens) (UniProt Q14164); conditions: at 1 µM
T1 sequence (whole entry): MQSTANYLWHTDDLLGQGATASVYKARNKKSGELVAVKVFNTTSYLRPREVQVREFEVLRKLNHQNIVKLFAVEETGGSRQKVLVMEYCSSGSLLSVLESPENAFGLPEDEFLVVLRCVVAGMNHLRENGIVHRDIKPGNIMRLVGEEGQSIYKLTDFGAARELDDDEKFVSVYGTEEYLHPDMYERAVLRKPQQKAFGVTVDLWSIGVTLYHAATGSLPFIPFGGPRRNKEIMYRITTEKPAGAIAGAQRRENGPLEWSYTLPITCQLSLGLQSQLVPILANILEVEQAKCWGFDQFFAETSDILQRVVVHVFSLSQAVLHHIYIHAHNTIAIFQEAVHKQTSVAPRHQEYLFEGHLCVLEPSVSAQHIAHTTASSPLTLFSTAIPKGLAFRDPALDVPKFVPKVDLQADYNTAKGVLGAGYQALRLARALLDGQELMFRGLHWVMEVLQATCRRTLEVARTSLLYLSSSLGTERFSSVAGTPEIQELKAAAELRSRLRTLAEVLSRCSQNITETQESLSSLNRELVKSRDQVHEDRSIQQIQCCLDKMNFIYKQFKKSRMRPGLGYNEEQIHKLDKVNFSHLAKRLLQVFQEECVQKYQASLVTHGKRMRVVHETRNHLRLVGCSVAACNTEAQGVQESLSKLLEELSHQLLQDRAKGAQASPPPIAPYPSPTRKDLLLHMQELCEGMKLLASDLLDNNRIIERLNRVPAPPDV

[2] = target: T2, Tyrosine-protein kinase Mer (Homo sapiens) (UniProt Q12866); conditions: at 10 µM
T2 sequence (whole entry): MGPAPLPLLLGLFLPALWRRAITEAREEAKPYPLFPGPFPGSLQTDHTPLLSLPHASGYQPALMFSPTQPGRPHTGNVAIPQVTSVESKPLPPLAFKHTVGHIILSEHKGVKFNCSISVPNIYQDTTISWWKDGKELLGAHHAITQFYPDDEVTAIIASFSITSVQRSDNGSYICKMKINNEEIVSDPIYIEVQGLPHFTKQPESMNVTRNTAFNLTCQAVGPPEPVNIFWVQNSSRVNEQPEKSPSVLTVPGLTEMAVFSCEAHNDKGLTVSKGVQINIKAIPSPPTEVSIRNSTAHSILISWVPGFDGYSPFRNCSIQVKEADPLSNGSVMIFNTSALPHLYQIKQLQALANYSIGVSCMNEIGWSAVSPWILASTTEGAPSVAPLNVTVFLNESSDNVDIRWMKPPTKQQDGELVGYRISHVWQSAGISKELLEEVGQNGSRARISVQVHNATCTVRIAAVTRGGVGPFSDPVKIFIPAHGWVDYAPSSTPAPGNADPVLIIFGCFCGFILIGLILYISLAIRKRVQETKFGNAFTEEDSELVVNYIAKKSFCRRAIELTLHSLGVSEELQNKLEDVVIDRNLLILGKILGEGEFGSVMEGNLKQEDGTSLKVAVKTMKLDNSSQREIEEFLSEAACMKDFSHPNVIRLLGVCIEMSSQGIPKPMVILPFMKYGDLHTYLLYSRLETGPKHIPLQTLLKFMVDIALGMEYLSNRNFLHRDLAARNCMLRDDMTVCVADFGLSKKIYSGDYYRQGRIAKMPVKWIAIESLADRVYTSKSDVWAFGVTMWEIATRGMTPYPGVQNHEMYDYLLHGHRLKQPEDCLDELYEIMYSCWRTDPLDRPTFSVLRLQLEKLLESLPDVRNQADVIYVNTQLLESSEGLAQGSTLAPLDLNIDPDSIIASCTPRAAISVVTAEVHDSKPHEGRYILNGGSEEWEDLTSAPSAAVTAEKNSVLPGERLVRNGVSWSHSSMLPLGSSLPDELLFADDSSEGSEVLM

[3] = target: T3, Serine/threonine-protein kinase TBK1 (Homo sapiens) (UniProt Q9UHD2); conditions: at 1 µM
T3 sequence (whole entry): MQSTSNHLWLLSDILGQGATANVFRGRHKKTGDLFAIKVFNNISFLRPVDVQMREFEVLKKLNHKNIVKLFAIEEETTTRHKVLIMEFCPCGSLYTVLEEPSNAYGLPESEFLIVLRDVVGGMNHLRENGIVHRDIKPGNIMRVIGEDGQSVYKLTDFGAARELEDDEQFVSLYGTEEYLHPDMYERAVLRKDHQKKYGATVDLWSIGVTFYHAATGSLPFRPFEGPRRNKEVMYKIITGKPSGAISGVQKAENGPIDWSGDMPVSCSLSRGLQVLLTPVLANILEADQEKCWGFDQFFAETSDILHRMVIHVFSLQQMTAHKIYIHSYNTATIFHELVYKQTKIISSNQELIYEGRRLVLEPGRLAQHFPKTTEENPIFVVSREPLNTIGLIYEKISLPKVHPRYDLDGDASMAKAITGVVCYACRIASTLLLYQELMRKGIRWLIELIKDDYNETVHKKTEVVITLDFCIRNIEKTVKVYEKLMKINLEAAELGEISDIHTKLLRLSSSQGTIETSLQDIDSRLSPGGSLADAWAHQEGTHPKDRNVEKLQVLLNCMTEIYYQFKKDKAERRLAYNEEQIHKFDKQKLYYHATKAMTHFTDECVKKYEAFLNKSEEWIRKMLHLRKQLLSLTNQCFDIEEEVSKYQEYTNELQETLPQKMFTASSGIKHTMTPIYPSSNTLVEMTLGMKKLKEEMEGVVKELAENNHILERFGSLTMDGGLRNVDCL

| SMILES | inhibition [1] | inhibition [2] [%] | inhibition [3] |
| --- | --- | --- | --- |
| CCCN1CCC(c2ccc(Nc3nc(Nc4cc(F)ccc4C(N)=O)c4cc[nH]c4n3)c(OC)c2)CC1 | 8% and 6% | 5 | 13% and 7% |
| CCN1CCC(CC(=O)Nc2n[nH]c3nc(-c4cccs4)c(Br)cc23)CC1 | 2% and 1% | -2 | 8% and 6% |
| COC(=O)Nc1nc2ccc(S(=O)(=O)c3ccc(NC(=O)Nc4cc(C(F)(F)F)ccc4F)cc3)cc2[nH]1 | -1% and -2% | 0 | 0% |
| CNC(=O)c1ncccc1Nc1nc(Nc2cc3c(cc2OC)CCCN3C(=O)CN(C)C)nc2[nH]ccc12 | 0% and 5% | 77 | 8% and 12% |
| O=C(O[C@H]1CN[C@H](C#Cc2cc3ncnc(Nc4ccc5c(cnn5Cc5ccccc5)c4)c3s2)C1)N1CCOCC1 | 1% and 2% | 15 | 26% and 31% |
| COc1cccc(-n2ncc3c(N/N=C/c4ccc(F)cc4)ncnc32)c1 | 1% and 0% | -2 | 5% and 11% |
| O=C(Nc1ccc(Oc2ccc3[nH]c(NC(=O)c4ccccc4)nc3c2)cc1)Nc1cc(C(F)(F)F)ccc1F | 6% and 5% | 78 | 6% and 3% |
| O=S(=O)(CCNCc1ccc(-c2ccc3ncnc(Nc4ccc(OCc5cccc(F)c5)c(Cl)c4)c3c2)o1)c1ccccc1 | -2% and -1% | 72 | 12% and 18% |
| CCn1c(-c2nonc2N)nc2cnc(Oc3cccc(NC(=O)c4ccc(N(C)C)cc4)c3)cc21 | 31% | -6 | 4% and 1% |
| CS(=O)(=O)CCNCc1nc(-c2ccc3ncnc(Nc4ccc(OCc5cccc(C(F)(F)F)c5)cc4)c3c2)cs1 | 0% | -6 | -2% and 1% |
| COc1cc(/C=N/Nc2ncnc3c2cnn3C(C)C)ccc1O | 0% and -3% | 2 | 9% and 8% |
| Cc1cc(O)cc(C)c1/C=C/c1cncc(C(=O)N(C)C)c1 | 3% and 1% | -4 | 1% and 6% |
| CN(c1ccc(NC(=O)NCCN2CCOCC2)cc1)c1ccnc(Nc2ccc(CS(C)(=O)=O)cc2)n1 | 2% and 5% | 101 | 3% and 2% |
| CCn1c(-c2nonc2N)nc2ccncc21 | -2% and -1% | 32 | -4% and -5% |
| COC(=O)Nc1nc2cc(Oc3ccc(NC(=O)Nc4cccc(C(=O)O)c4)cc3)ccc2[nH]1 | 0% and -2% | 94 | -5% and -2% |
| COC(=O)Nc1nc2cc(Oc3cccc(NC(=O)Nc4cc(C(F)(F)F)ccc4F)c3)ccc2[nH]1 | -1% and -2% | -10 | -2% |
| COc1cc(C)c(N(C)C(=O)CN(C)C)cc1Nc1nc(Nc2cccc(F)c2C(N)=O)c2cc[nH]c2n1 | -3% and -2% | 50 | -4% and -3% |
| COc1cc(C)c(NC(=O)CN(C)C)cc1Nc1nc(Nc2cccc(F)c2C(N)=O)c2cc[nH]c2n1 | 9% and 8% | 52 | 30% and 32% |

Second part, the compound after the results:

| inhibition [1] | inhibition [2] [%] | inhibition [3] | SMILES |
| --- | --- | --- | --- |
| 2% | 88 | -3% and 1% | Nc1nccc(-c2c(-c3ccc(F)cc3)nn3cc(C(F)(F)F)ccc23)n1 |
| 1% and -3% | 89 | -2% and 0% | CS(=O)(=O)CCNCc1ccc(-c2ccc3ncnc(Nc4ccc(OCc5ccccc5)c(Cl)c4)c3c2)o1 |
| -1% and 4% | -5 | -5% and -3% | CC1(C)CC(n2cnc(-c3ccc(F)cc3)c2-c2ccnc(N)n2)CC(C)(C)N1 |
| -2% | -6 | -6% and -5% | OCc1ccc(-c2nc(-c3ccccn3)c(-c3ccc4c(c3)OCO4)[nH]2)cc1 |
| 2% | -8 | 1% and 5% | Cc1nn(C)c2cc(N(C)c3ccnc(Nc4cccc(S(N)(=O)=O)c4)n3)ccc12 |
| 0% and 1% | 3 | 3% and 2% | CC1=C(C(=O)Nc2ccc3[nH]ncc3c2)C(c2ccc(Cl)c(Cl)c2)CC(=O)N1 (configuration not stated) |
| 27% | -4 | 42% and 41% | NS(=O)(=O)c1ccc(N/N=C2\C(=O)Nc3ccc(C(=O)NCCCn4ccnc4)cc32)cc1 |
| 8% and 6% | -8 | 7% and 5% | Nc1nc(-c2ccc3c(c2)C(=Cc2cc(Br)c(O)c(Br)c2)C(=O)N3)cs1 |
| -4% | -6 | -10% and -6% | Cc1cccc(-c2n[nH]cc2-c2ccc3ncccc3n2)n1 |
| 21% and 19% | 3 | 24% and 28% | COc1cc2c(cc1Nc1nc(N3CCc4ccccc43)c3cc[nH]c3n1)N(C(=O)CN(C)C)CC2 |
| -4% and 0% | -5 | -6% and -7% | Fc1cccc(COc2ccc(Nc3ncncc3C#Cc3ccccc3)cc2Cl)c1 |
| 5% and 3% | -5 | 29% and 25% | NS(=O)(=O)c1ccc(N/N=C2\C(=O)Nc3cccc(CCc4ccncc4)c32)cc1 |
| 21% and 20% | 5 | 55% and 56% | COc1ccc2[nH]c3c4[nH]c5ccc(OC)cc5c4c4c(c3c2c1)C(=O)NC4=O |
| -3% | 1 | -3% and -7% | CN1CCC(C(=O)Nc2n[nH]c3nnc(-c4ccccc4)cc23)CC1 |
| 1% and 2% | 62 | -2% and -4% | O=C1NC(=O)C(c2ccc(Cl)cc2)=C1Nc1ccc(Cl)c(C(=O)O)c1 |
| -1% and -3% | 1 | 0% and 5% | NC(=O)c1ccc(-c2nc(-c3ccccn3)c(-c3ccc4c(c3)OCO4)[nH]2)cc1 |
| 1% | -6 | 1% | O=C1NC(=O)C(N2CCc3ccccc32)=C1c1ccc(Cl)cc1 |
| -5% and 0% | 0 | 2% and 1% | O=C(NCC1CC1)c1ccc(-c2cccc(C(=O)NC3CC3)c2)cc1 |
| 0% and -1% | 0 | 2% and 1% | c1ccc(Nc2ncc(-c3ccccc3)o2)cc1 |
| -1% and 0% | 0 | -1% and 2% | CN(C)CCCNc1nccc(-c2c(-c3ccc(F)cc3)nn3cc(C(F)(F)F)ccc23)n1 |
| -1% and 0% | 5 | -1% and -3% | Cc1ccc2c(-c3ccnc(Nc4ccccc4)n3)c(-c3ccc(F)cc3)nn2n1 |
